The values below come from PMC10439185 (Cell Reports Medicine, 2023).

Each structure is given as a SMILES string.

For one assay, the target named is T1, PPT1 (endogenous, BMDMs) (Mus musculus, UniProt O88531).
T1 sequence (O88531 28-306): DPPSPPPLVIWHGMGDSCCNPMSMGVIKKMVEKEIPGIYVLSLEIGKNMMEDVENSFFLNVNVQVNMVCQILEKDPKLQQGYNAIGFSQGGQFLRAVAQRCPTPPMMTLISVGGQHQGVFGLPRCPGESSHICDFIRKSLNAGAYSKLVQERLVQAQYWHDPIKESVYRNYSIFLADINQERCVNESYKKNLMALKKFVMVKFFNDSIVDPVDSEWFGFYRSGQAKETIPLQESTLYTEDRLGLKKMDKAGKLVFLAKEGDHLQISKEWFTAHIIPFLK
In words: cellular thermal shift assay, immunoblot. The assay is classed as cell-based. The settings on record: intact BMDMs, 37-62 °C, 3 min. For orientation: In western blotting, separated proteins are transferred to a membrane and probed.

The target of a further assay is T2, PPT1 (Mus musculus, UniProt O88531).
T2 sequence (O88531 28-306): T1 sequence (O88531 28-306)
In words: microscale thermophoresis. The assay is classed as binding.

As for `O=C(O)C(=O)Cc1ccccc1` [phenylpyruvate], the thermal shift entry at PPT1 (endogenous, BMDMs) is “phenylpyruvate treatment significantly changed PPT1 protein stability after heating”. Further, the dissociation constant Kd (in general, the equilibrium constant for the complex coming apart) at PPT1 stood at 863 µM.
